Assays:
RORγ-LBD = molecular target: T1, RORγ-LBD (Homo sapiens, UniProt P51449); assay: RORγ-Ligand Binding Domain (LBD) TR-FRET Assay; assay type: biochemical;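 on TR-FRET Assay Max Response: 665/615 nm ratio relative to signal without ursolic acid or compound set at 100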
T1 construct: made in house; host or cells: SF9 cells (baculovirus)
T1 sequence (P51449 269-508 limits assumed): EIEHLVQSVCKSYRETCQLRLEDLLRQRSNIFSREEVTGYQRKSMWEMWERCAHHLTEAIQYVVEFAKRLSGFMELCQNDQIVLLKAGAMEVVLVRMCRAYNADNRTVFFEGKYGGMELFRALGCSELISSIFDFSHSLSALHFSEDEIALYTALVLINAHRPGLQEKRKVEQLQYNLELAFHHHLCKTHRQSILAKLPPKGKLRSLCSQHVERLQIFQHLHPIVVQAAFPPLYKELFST
Procedure, shortened: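 Lysate from SF9 cells expressing His-RORγ-LBD is diluted to about 3 nM final in 50 mM Tris pH 7.0 assay buffer. A biotin-tagged SRC1 LXXLL peptide goes in at 200 nM final, plus ursolic acid at 2 μM final. Test compounds carry 1% DMSO final; signal read by TR-FRET.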

Gal4-RORγ-LBD = molecular target: T2, Gal4-RORγ-LBD (Homo sapiens, UniProt P51449); assay: Gal4-RORγ Luciferase Reporter Assay in HEK-293T Cells; assay type: cell-based; settings: HEK-293 cells, luciferase reporter, with 2 μM ursolic acid
T2 construct: expressed in transfected cells; host or cells: HEK-293 cells (pcDNA3.1neo plasmid)
T2 sequence (P51449 269-508 limits assumed): T1 sequence (P51449 269-508 limits assumed)
Procedure, shortened: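 In transfected HEK-293 cells (Gal4-RORγ-LBD, Gal4-luciferase), test agents with 2 μM ursolic acid were incubated overnight at 37 °C before luminescent detection. Values are relative to the ursolic-acid-free, compound-free signal (100).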

NS(=O)(=O)CCC(=O)NC[C@H]1CN(S(=O)(=O)c2cccc(C(F)(F)F)c2)c2cc(-c3cc(F)ccc3F)ccc2O1 [Compound 30AL, (S)-N-((6-(2,5-difluorophenyl)-4-((3-(trifluoromethyl)phenyl)-sulfonyl)-3,4-dihydro-2H-benzo[b][1,4]oxazin-2-yl)methyl)-3-sulfamoyl-propanamide]
EC50 (RORγ-LBD): < 0.5 µM | TR-FRET Assay Max Response (RORγ-LBD): **** (The symbol “****” indicates a value greater than 200) | EC50 (Gal4-RORγ-LBD): < 0.5 µM | Gal4-RORγ Assay Max Response (Gal4-RORγ-LBD): * (The symbol “*” indicates a value in the range of 25 to 90)

O=C(NC[C@H]1CN(S(=O)(=O)c2cccc(C(F)(F)F)c2)c2cc(-c3cc(F)ccc3F)ccc2O1)[C@@H]1C[C@@H]1F [Compound 30AM, (1S,2S)-N-(((S)-6-(2,5-difluoro-phenyl)-4-((3-(trifluoromethyl)-phenyl)sulfonyl)-3,4-dihydro-2H-benzo[b][1,4]oxazin-2-yl)methyl)-2-fluorocyclo-propane-1-carboxamide]
EC50 (RORγ-LBD): < 0.5 µM | TR-FRET Assay Max Response (RORγ-LBD): **** (The symbol “****” indicates a value greater than 200) | EC50 (Gal4-RORγ-LBD): < 0.5 µM | Gal4-RORγ Assay Max Response (Gal4-RORγ-LBD): ** (The symbol “**” indicates a value in the range of greater than 90 to 150)

O=C(NC[C@H]1CN(S(=O)(=O)c2cccc(C(F)(F)F)c2)c2cc(-c3cc(F)ccc3F)ccc2O1)[C@H]1C[C@H]1F [Compound 30AN, (1R,2R)-N-(((S)-6-(2,5-difluoro-phenyl)-4-((3-(trifluoromethyl)-phenyl)sulfonyl)-3,4-dihydro-2H-benzo[b][1,4]oxazin-2-yl)methyl)-2-fluorocyclo-propane-1-carboxamide]
EC50 (RORγ-LBD): < 0.5 µM | TR-FRET Assay Max Response (RORγ-LBD): **** (The symbol “****” indicates a value greater than 200) | EC50 (Gal4-RORγ-LBD): < 0.5 µM | Gal4-RORγ Assay Max Response (Gal4-RORγ-LBD): ** (The symbol “**” indicates a value in the range of greater than 90 to 150)

CC(C)(C)C(=O)NC[C@H]1CN(S(=O)(=O)c2cccc(C(F)(F)F)c2)c2cc(-c3cc(F)ccc3F)ccc2O1 [Compound 30AO, (S)-N-((6-(2,5-difluorophenyl)-4-((3-(trifluoromethyl)phenyl)-sulfonyl)-3,4-dihydro-2H-benzo[b][1,4]oxazin-2-yl)methyl)pivalamide]
EC50 (RORγ-LBD): < 0.5 µM | TR-FRET Assay Max Response (RORγ-LBD): **** (The symbol “****” indicates a value greater than 200) | EC50 (Gal4-RORγ-LBD): < 0.5 µM | Gal4-RORγ Assay Max Response (Gal4-RORγ-LBD): * (The symbol “*” indicates a value in the range of 25 to 90)

N#CCC(=O)NC[C@H]1CN(S(=O)(=O)c2cccc(C(F)(F)F)c2)c2cc(-c3cc(F)ccc3F)ccc2O1 [Compound 30AP, (S)-2-cyano-N-((6-(2,5-difluoro-phenyl)-4-((3-(trifluoromethyl)-phenyl)sulfonyl)-3,4-dihydro-2H-benzo[b][1,4]oxazin-2-yl)methyl)acetamide]
EC50 (RORγ-LBD): < 0.5 µM | TR-FRET Assay Max Response (RORγ-LBD): *** (The symbol “***” indicates a value in the range of greater than 150 to 200) | EC50 (Gal4-RORγ-LBD): < 0.5 µM | Gal4-RORγ Assay Max Response (Gal4-RORγ-LBD): * (The symbol “*” indicates a value in the range of 25 to 90)

CC(C)(C#N)C(=O)NC[C@H]1CN(S(=O)(=O)c2cccc(C(F)(F)F)c2)c2cc(-c3cc(F)ccc3F)ccc2O1 [Compound 30AQ, (S)-2-cyano-N-((6-(2,5-difluoro-phenyl)-4-((3-(trifluoromethyl)-phenyl)sulfonyl)-3,4-dihydro-2H-benzo[b][1,4]oxazin-2-yl)methyl)-2-methylpropanamide]
EC50 (RORγ-LBD): < 0.5 µM | TR-FRET Assay Max Response (RORγ-LBD): *** (The symbol “***” indicates a value in the range of greater than 150 to 200) | EC50 (Gal4-RORγ-LBD): < 0.5 µM | Gal4-RORγ Assay Max Response (Gal4-RORγ-LBD): * (The symbol “*” indicates a value in the range of 25 to 90)

O=C(NC[C@H]1CN(S(=O)(=O)c2cccc(C(F)(F)F)c2)c2cc(-c3cc(F)ccc3F)ccc2O1)C1(F)CC1 [Compound 30AR, (S)-N-((6-(2,5-difluorophenyl)-4-((3-(trifluoromethyl)phenyl)-sulfonyl)-3,4-dihydro-2H-benzo[b][1,4]oxazin-2-yl)-methyl)-1-fluorocyclopropane-1-carboxamide]
EC50 (RORγ-LBD): < 0.5 µM | TR-FRET Assay Max Response (RORγ-LBD): **** (The symbol “****” indicates a value greater than 200) | EC50 (Gal4-RORγ-LBD): < 0.5 µM | Gal4-RORγ Assay Max Response (Gal4-RORγ-LBD): * (The symbol “*” indicates a value in the range of 25 to 90)

CC(=O)N[C@@H](C(=O)NC[C@H]1CN(S(=O)(=O)c2cccc(C(F)(F)F)c2)c2cc(-c3cc(F)ccc3F)ccc2O1)C(C)C [Compound 30AS]
EC50 (RORγ-LBD): < 0.5 µM | TR-FRET Assay Max Response (RORγ-LBD): *** (The symbol “***” indicates a value in the range of greater than 150 to 200) | EC50 (Gal4-RORγ-LBD): 0.5 to 5 µM | Gal4-RORγ Assay Max Response (Gal4-RORγ-LBD): * (The symbol “*” indicates a value in the range of 25 to 90)

CC(=O)N[C@H](C)C(=O)NC[C@H]1CN(S(=O)(=O)c2cccc(C(F)(F)F)c2)c2cc(-c3cc(F)ccc3F)ccc2O1 [Compound 30AT, (R)-2-acetamido-N-(((S)-6-(2,5-difluorophenyl)-4-((3-(trifluoro-methyl)phenyl)sulfonyl)-3,4-dihydro-2H-benzo[b][1,4]-oxazin-2-yl)methyl)propanamide]
EC50 (RORγ-LBD): < 0.5 µM | TR-FRET Assay Max Response (RORγ-LBD): *** (The symbol “***” indicates a value in the range of greater than 150 to 200) | EC50 (Gal4-RORγ-LBD): 0.5 to 5 µM | Gal4-RORγ Assay Max Response (Gal4-RORγ-LBD): ** (The symbol “**” indicates a value in the range of greater than 90 to 150)

CC(C)(CO)C(=O)NC[C@H]1CN(S(=O)(=O)c2cccc(C(F)(F)F)c2)c2cc(-c3cc(F)ccc3F)ccc2O1 [Compound 30AU, (S)-N-((6-(2,5-difluorophenyl)-4-((3-(trifluoromethyl)phenyl)-sulfonyl)-3,4-dihydro-2H-benzo[b][1,4]oxazin-2-yl)methyl)-3-hydroxy-2,2-dimethylpropanamide]
EC50 (RORγ-LBD): < 0.5 µM | TR-FRET Assay Max Response (RORγ-LBD): **** (The symbol “****” indicates a value greater than 200) | EC50 (Gal4-RORγ-LBD): < 0.5 µM | Gal4-RORγ Assay Max Response (Gal4-RORγ-LBD): ** (The symbol “**” indicates a value in the range of greater than 90 to 150)

CC1(C(=O)NC[C@H]2CN(S(=O)(=O)c3cccc(C(F)(F)F)c3)c3cc(-c4cc(F)ccc4F)ccc3O2)CC1 [Compound 30AV, (S)-N-((6-(2,5-difluorophenyl)-4-((3-(trifluoromethyl)phenyl)-sulfonyl)-3,4-dihydro-2H-benzo[b][1,4]oxazin-2-yl)methyl)-1-methylcyclo-propane-1-carboxamide]
EC50 (RORγ-LBD): < 0.5 µM | TR-FRET Assay Max Response (RORγ-LBD): *** (The symbol “***” indicates a value in the range of greater than 150 to 200) | EC50 (Gal4-RORγ-LBD): < 0.5 µM | Gal4-RORγ Assay Max Response (Gal4-RORγ-LBD): * (The symbol “*” indicates a value in the range of 25 to 90)

C=CCC(=O)NC[C@H]1CN(S(=O)(=O)c2cccc(C(F)(F)F)c2)c2cc(-c3cc(F)ccc3F)ccc2O1 [Compound 30AW, (S)-N-((6-(2,5-difluorophenyl)-4-((3-(trifluoromethyl)phenyl)-sulfonyl)-3,4-dihydro-2H-benzo[b][1,4]oxazin-2-yl)methyl)but-3-enamide]
EC50 (RORγ-LBD): < 0.5 µM | TR-FRET Assay Max Response (RORγ-LBD): *** (The symbol “***” indicates a value in the range of greater than 150 to 200) | EC50 (Gal4-RORγ-LBD): < 0.5 µM | Gal4-RORγ Assay Max Response (Gal4-RORγ-LBD): ** (The symbol “**” indicates a value in the range of greater than 90 to 150)

CC(C)C(=O)NC[C@H]1CN(S(=O)(=O)c2cccc(C(F)(F)F)c2)c2cc(-c3cc(F)ccc3F)ccc2O1 [Compound 30AX, (S)-N-((6-(2,5-difluorophenyl)-4-((3-(trifluoromethyl)phenyl)-sulfonyl)-3,4-dihydro-2H-benzo[b][1,4]oxazin-2-yl)methyl)isobutyramide]
EC50 (RORγ-LBD): < 0.5 µM | TR-FRET Assay Max Response (RORγ-LBD): *** (The symbol “***” indicates a value in the range of greater than 150 to 200) | EC50 (Gal4-RORγ-LBD): < 0.5 µM | Gal4-RORγ Assay Max Response (Gal4-RORγ-LBD): ** (The symbol “**” indicates a value in the range of greater than 90 to 150)

CC(=O)OCC(=O)NC[C@H]1CN(S(=O)(=O)c2cccc(C(F)(F)F)c2)c2cc(-c3cc(F)ccc3F)ccc2O1 [Compound 30AY, (S)-2-(((6-(2,5-difluorophenyl)-4-((3-(trifluoromethyl)phenyl)-sulfonyl)-3,4-dihydro-2H-benzo[b][1,4]oxazin-2-yl)methyl)amino)-2-oxoethyl acetate]
EC50 (RORγ-LBD): < 0.5 µM | TR-FRET Assay Max Response (RORγ-LBD): *** (The symbol “***” indicates a value in the range of greater than 150 to 200) | EC50 (Gal4-RORγ-LBD): < 0.5 µM | Gal4-RORγ Assay Max Response (Gal4-RORγ-LBD): ** (The symbol “**” indicates a value in the range of greater than 90 to 150)

O=C(NC[C@H]1CN(S(=O)(=O)c2cccc(C(F)(F)F)c2)c2cc(-c3cc(F)ccc3F)ccc2O1)C1CCCC1 [Compound 30AZ, (S)-N-((6-(2,5-difluorophenyl)-4-((3-(trifluoromethyl)phenyl)-sulfonyl)-3,4-dihydro-2H-benzo-[b][1,4]oxazin-2-yl)methyl)-cyclopentanecarboxamide]
EC50 (RORγ-LBD): < 0.5 µM | TR-FRET Assay Max Response (RORγ-LBD): **** (The symbol “****” indicates a value greater than 200) | EC50 (Gal4-RORγ-LBD): < 0.5 µM | Gal4-RORγ Assay Max Response (Gal4-RORγ-LBD): ** (The symbol “**” indicates a value in the range of greater than 90 to 150)
